Measurements as given in article PMC8251916 (Chemistry (Weinheim an Der Bergstrasse, Germany), 2021).
Like-named read-outs stand apart in the source and are kept apart here.

What was measured:
[1] = tested on: F21T-Na+ (human telomeric G-quadruplex, antiparallel); details: 200 nM DNA, previously reported data for 1, ref S16, cited from earlier work
[2] = tested on: F21T-K+ (human telomeric G-quadruplex, mixed parallel/hybrid); details: 200 nM DNA, previously reported data for 1, cited from earlier work
[3] = tested on: FMycT (DNA, G4) TTGAGGGTGGGTAGGGTGGGTAA; experiment: FRET melting; details: 1 mM K+, 99 mM Li+; 10 mM Li cacodylate; 5 µM ligand, 200 nM DNA
[4] = tested on: F21T (DNA, G4) GGGTTAGGGTTAGGGTTAGGG; experiment: FRET melting; details: 10 mM Li cacodylate, 5 µM ligand, 200 nM DNA

Row | Compound | ΔTm F21T-Na+ ([1]; 1 µM ligand) | ΔTm F21T-Na+ ([1]; 10 µM ligand) | ΔTm F21T-K+ ([2]; 1 µM ligand, ref S16) | ΔTm F21T-K+ ([2]; 5 μM ligand) | ΔTm F21T-K+ ([2]; 10 µM ligand, ref S16) | ΔTm [3] | ΔTm ([4]; 10 mM K+, 90 mM Li+) | ΔTm ([4]; 100 mM Na+)
1 | CN1CCN(CCCN2C(=O)c3ccc4c5c(ccc(c35)C2=O)C(=O)N(CCCN2CCN(C)CC2)C4=O)CC1 [Compound 1] | -2 ± 1 °C | 2 ± 1 °C | 10 ± 1 °C | 14±2 °C | 20 ± 1 °C | – | – | –
2 | CN1CCN(CCCNC(=O)c2ccc(Oc3ccc(C(C)(C)c4ccc(Oc5ccc(C(=O)NCCCN6CCN(C)CC6)c(C(=O)NCCCN6CCN(C)CC6)c5)cc4)cc3)cc2C(=O)NCCCN2CCN(C)CC2)CC1 [Compound 11] | – | – | – | – | – | 5±1 °C | 7±2 °C | 1±1 °C
